The values below come from US4008274A, “Certain salicylanilides” (Yoshitomi Pharmaceutical Industries, Ltd., priority 1973, dated 1977).

For orientation: LD50 means the dose at which mortality reaches 50%.

≈ marks a conversion by molar mass, not a printed value.

Data set [1] has as its system barnacles. The data set is described as follows: Barnacle Killing Activity. It is filed as in vivo. The following applies: after 48 hours, out of 30 living barnacles, 20°±2° C. On the procedure:
Seawater (4 liters) was poured into a glass vessel (15 × 20 × 21 cm). The water temperature was maintained at 20°±2° C. Clean air was introduced at a rate of 150 ml/min throughout the experiment. Then 1 ml (or 5 ml) of a solution prepared by dissolving 0.400 g of the test compound in 100 ml of 4:1 ethanol-acetone mixture was dropped into the vessel to attain the concentration of 1 ppm (or 5 ppm). As the control run, 1 ml (or 5 ml) of the solvent was dropped into the vessel. Of scores of barnacles sticking to a stone obtained from the sea-shore 30 living barnacles were selected at randum, the rest of the barnacles on the stone being neglected for the experiment. Such stone was put in the vessel. After 48 hours, the number of dead barnacles was counted.

In data set [2] the test system is Spirogyra. The data set is described as follows: Algicidal Activity. It is filed as in vivo. On the set-up: key: 0: Brown algae on the bottom of the vessel. Destroyed and brown spiral chloroplasts (under a microscope).; 10: Vigorous algae growth. Vivid green spiral chloroplasts (under a microscope). Conditions: 48 hours, 20°±2° C. Here is the method:
Tap water (4 liters) was poured into a glass vessel (15 × 20 × 21 cm). The vessel was kept in a greenhouse maintained at 20°±2° C. Then 1 ml (or 5 ml) of a solution prepared by dissolving 0.400 g of the test compound in 100 ml of 4:1 ethanol-acetone mixture was dropped into the vessel to attain the concentration of 1 ppm (or 5 ppm). As the control run, 1 ml (or 5 ml) of the solvent was dropped into the vessel. About 5 g of wet Spirogyra was put in the vessel. Clean air was introduced at a rate of 150 ml/min for 48 hours.
The algicidal acticity was evaluated by the following criteria:
0: Brown algae on the bottom of the vessel. Destroyed and brown spiral chloroplasts (under a microscope).
10: Vigorous algae growth. Vivid green spiral chloroplasts (under a microscope).

In data set [3] the test system is Staphylococcus aureus FDA 2099. Kind of data set: Antibacterial Activity (agar dilution method), Staphylococcus aureus FDA 2099. It is filed as cell-based. The following applies: FDA2099, 48 h; Staphylococcus aureus FDA 2099, nutrient agar, 37° C, 2 days; read-out: minimal inhibitory concentration (MIC). On the procedure: (§1) The minimal inhibitory concentration (MIC; mcg/ml) of the test compounds determined by the agar dilution method on the nutrient agar medium is shown in TABLE III. The procedure is as follows: The test compound was mixed with the nutrient agar medium and the medium was allowed to coagulate. A solution containing Staphylococcus aureus FDA 2099 or Bacillus subtilis PCI 219 was inoculated into the medium and cultivated at 37° C for 2 days.
(In agar dilution the substance is mixed into plates at graded concentrations.)

Data set [4] relates to Bacillus subtilis PCI 219. Kind of data set: Antibacterial Activity (agar dilution method), Bacillus subtilis PCI 219. It is filed as cell-based. Conditions: PCI219, 48 h; Bacillus subtilis PCI 219, nutrient agar, 37° C, 2 days; read-out: minimal inhibitory concentration (MIC). Here is the method:
as §1

The nature of data set [5]: Percutaneous toxicity. The following applies: mouse, in vivo, topical or ocular; dd-strain female mice, 10% solution in acetone on shaved backs. Here is the method:
Percutaneous LD50 values were determined in dd-strain female mice by applying a 10% solution of the test compound in acetone on the shaved backs.

Data set [6] is described as follows: Oral toxicity (Litchfield-Wilcoxon method). Conditions: mouse, in vivo, dd-strain female mice, 25% suspension in water containing 0.5% carboxymethylcellulose. Here is the method:
Oral LD50 values were determined in dd-strain female mice according to the conventional Litchfield-Wilcoxon method. The test compound was administered as a 25% suspension in water containing 0.5% carboxymethylcellulose.

As for `COc1cc([N+](=O)[O-])ccc1NC(=O)c1cc(C(C)(C)C)ccc1O` [compound 15], the “number of dead barnacles” value in data set [1] (1 ppm) is 9; in data set [1] (5 ppm) it was 30.

Regarding `Cc1cccc(NC(=O)c2cc(C(C)(C)C)ccc2O)c1C` [compound 16], the algicidal activity score came out at 10 in data set [2] (1 ppm) and 0 in data set [2] (5 ppm). Besides, the “number of dead barnacles” value in data set [1] (1 ppm) was determined as 4; in data set [1] (5 ppm), 30.

For `Cc1cc([N+](=O)[O-])ccc1NC(=O)c1cc(C(C)(C)CC(C)(C)C)ccc1O` [compound 24], the MIC in data set [3] and in data set [4] was 1 µg/mL (≈ 2.6 µM) each time.

As to `CC(C)c1ccc(O)c(C(=O)Nc2ccc([N+](=O)[O-])cc2)c1` [compound 9], the algicidal activity score in data set [2] (1 ppm) and in data set [2] (5 ppm) was 0 each time. The “number of dead barnacles” value in data set [1] (1 ppm) is given as 20; in data set [1] (5 ppm), 30. Moreover, the MIC in data set [3] and in data set [4] was 5 µg/mL (≈ 16.6 µM) each time.

On to `COc1ccc(NC(=O)c2cc(C(C)(C)C)ccc2O)cc1` [compound 17], for which the algicidal activity score was 10 in data set [2] (1 ppm) and 0 in data set [2] (5 ppm).

For the compound `Cc1ccc(O)c(C(=O)Nc2ccc([N+](=O)[O-])c(C)c2)c1` [Test Compound 2, 3',5-Dimethyl-4'-nitrosalicylanilide], the algicidal activity score in data set [2] (1 ppm) and in data set [2] (5 ppm) was 0 throughout. Moreover, the results for the “number of dead barnacles” value in data set [1] (1 ppm) and in data set [1] (5 ppm) were 2 and 30, respectively.

On to `Cc1ccc(O)c(C(=O)Nc2cc([N+](=O)[O-])ccc2C)c1` [compound 3], for which the “number of dead barnacles” value in data set [1] (1 ppm) was determined as 3; in data set [1] (5 ppm) it was 30. Also, the MIC in data set [3] and in data set [4] was 10 µg/mL (≈ 34.9 µM) in each case.

In the case of `CCC(C)(C)c1ccc(O)c(C(=O)Nc2cccc(SC)c2)c1` [compound 22], the results for the algicidal activity score in data set [2] (1 ppm) and in data set [2] (5 ppm) were 10 and 0, respectively.

For `Cc1cc([N+](=O)[O-])ccc1NC(=O)c1cc(C(C)(C)C)ccc1O` [Test Compound 10, 5-Tert-butyl-2'-methyl-4'-nitrosalicylanilide], the LD50 is > 5000 mg/kg in data set [5] and > 10000 mg/kg in data set [6].

Consider `Cc1ccc([N+](=O)[O-])cc1NC(=O)c1cc(C(C)C)ccc1O` [compound 8], for which the values for the algicidal activity score in data set [2] (1 ppm) and in data set [2] (5 ppm) were 10 and 0, respectively. Besides, the “number of dead barnacles” value in data set [1] (1 ppm) is reported as 16; in data set [1] (5 ppm), 30. Also, the MIC in data set [3] and in data set [4] was 5 µg/mL (≈ 15.9 µM) each time.

With `O=C(Nc1ccc(Br)cc1)c1cc(Br)cc(Br)c1O` [Tribromsalan, 3,4',5-Tribromosalicylanilide, reference compound], the median lethal dose (LD50) in data set [5] was > 2000 mg/kg; in data set [6] it was 124 mg/kg.

As to `COc1cc([N+](=O)[O-])ccc1NC(=O)c1cc(C)ccc1O` [compound 6], the “number of dead barnacles” value in data set [1] (1 ppm) amounted to 2; in data set [1] (5 ppm), 20.

For `CCC(C)(C)c1ccc(O)c(C(=O)Nc2cc([N+](=O)[O-])ccc2C)c1` [compound 20], the algicidal activity score in data set [2] (1 ppm) and in data set [2] (5 ppm) was 0 in each case. Besides, the “number of dead barnacles” value in data set [1] (1 ppm) and in data set [1] (5 ppm) was 30 in each case. Further, the MIC in data set [3] and in data set [4] was 1 µg/mL (≈ 2.92 µM) in each case.

Regarding `CSc1cccc(NC(=O)c2cc(C(C)(C)C)ccc2O)c1` [compound 14], the results for the algicidal activity score in data set [2] (1 ppm) and in data set [2] (5 ppm) were 10 and 0, respectively. The “number of dead barnacles” value in data set [1] (1 ppm) is on record as 3; in data set [1] (5 ppm), 30. The MIC in data set [3] and in data set [4] was 5 µg/mL (≈ 15.9 µM) each time.

For `Cc1cc([N+](=O)[O-])ccc1NC(=O)c1cc(C(C)(C)C)ccc1O` [compound 10], the algicidal activity score in data set [2] (1 ppm) and in data set [2] (5 ppm) was 0 each time. Besides, the “number of dead barnacles” value in data set [1] (1 ppm) and in data set [1] (5 ppm) was 30 each time. For the same compound, the MIC in data set [3] stood at 1 µg/mL (≈ 3.05 µM); in data set [4], 0.5 µg/mL (≈ 1.52 µM).

With `CC(C)(C)c1ccc(O)c(C(=O)Nc2ccc([N+](=O)[O-])cc2)c1` [compound 13], the “number of dead barnacles” value in data set [1] (1 ppm) is given as 22; in data set [1] (5 ppm) it was 30. In addition, the MIC was determined as 2 µg/mL (≈ 6.36 µM) in data set [3] and 1 µg/mL (≈ 3.18 µM) in data set [4].

On to `Cc1ccc(O)c(C(=O)Nc2ccc([N+](=O)[O-])cc2C)c1` [Test Compound 1, 2',5-dimethyl-4'-nitrosalicylanilide], for which the algicidal activity score in data set [2] (1 ppm) and in data set [2] (5 ppm) was 0 in each case. Besides, the “number of dead barnacles” value in data set [1] (1 ppm) is listed as 10; in data set [1] (5 ppm) it was 30. For the same compound, the MIC came out at 5 µg/mL (≈ 17.5 µM) in data set [3] and 2 µg/mL (≈ 6.99 µM) in data set [4].

Turning to `CSc1cccc(NC(=O)c2cc(C)ccc2O)c1` [compound 5], the “number of dead barnacles” value is listed as 2 in data set [1] (1 ppm) and 18 in data set [1] (5 ppm).

Consider `CCC(C)(C)c1ccc(O)c(C(=O)Nc2ccc([N+](=O)[O-])cc2)c1` [compound 21], for which the algicidal activity score in data set [2] (1 ppm) and in data set [2] (5 ppm) was 0 throughout. The “number of dead barnacles” value in data set [1] (1 ppm) is given as 25; in data set [1] (5 ppm), 30. For the same compound, the MIC in data set [3] and in data set [4] was 1 µg/mL (≈ 3.05 µM) each time.

Regarding `CCC(C)(C)c1ccc(O)c(C(=O)Nc2ccc([N+](=O)[O-])cc2C)c1` [compound 18], the algicidal activity score in data set [2] (1 ppm) and in data set [2] (5 ppm) was 0 in each case. Besides, the “number of dead barnacles” value in data set [1] (1 ppm) and in data set [1] (5 ppm) was 30 in each case. The MIC in data set [3] and in data set [4] was 0.5 µg/mL (≈ 1.46 µM) in each case.

As to `CCC(C)(C)c1ccc(O)c(C(=O)Nc2ccc([N+](=O)[O-])c(C)c2)c1` [compound 19], the algicidal activity score in data set [2] (1 ppm) and in data set [2] (5 ppm) was 0 throughout. Further, the “number of dead barnacles” value was found to be 2 in data set [1] (1 ppm) and 30 in data set [1] (5 ppm). The MIC in data set [3] and in data set [4] was 0.5 µg/mL (≈ 1.46 µM) each time.

Take `Cc1cc(NC(=O)c2cc(C(C)(C)C)ccc2O)ccc1[N+](=O)[O-]` [compound 11]: the algicidal activity score is recorded as 10 in data set [2] (1 ppm) and 0 in data set [2] (5 ppm). In addition, the “number of dead barnacles” value in data set [1] (1 ppm) and in data set [1] (5 ppm) was 30 each time. Further, the MIC in data set [3] and in data set [4] was 1 µg/mL (≈ 3.05 µM) throughout.

For the compound `Cc1cccc(NC(=O)c2cc(C(C)(C)C)ccc2O)c1C` [Test Compound 16, 5-Tert-butyl-2',3'-dimethylsalicylanilide], the LD50 was > 5000 mg/kg in data set [5] and > 10000 mg/kg in data set [6].

With `Cc1cc([N+](=O)[O-])ccc1NC(=O)c1cc(C(C)C)ccc1O` [compound 7], the algicidal activity score in data set [2] (1 ppm) and in data set [2] (5 ppm) was 0 each time. In addition, the “number of dead barnacles” value is recorded as 14 in data set [1] (1 ppm) and 30 in data set [1] (5 ppm). In addition, the MIC in data set [3] and in data set [4] was 5 µg/mL (≈ 15.9 µM) throughout.

With `CCC(C)(C)c1ccc(O)c(C(=O)Nc2ccc([N+](=O)[O-])cc2OC)c1` [compound 23], the algicidal activity score in data set [2] (1 ppm) and in data set [2] (5 ppm) was 0 throughout. Besides, the results for the “number of dead barnacles” value in data set [1] (1 ppm) and in data set [1] (5 ppm) were 6 and 30, respectively. For the same compound, the MIC in data set [3] and in data set [4] was 5 µg/mL (≈ 14 µM) in each case.

With `Cc1ccc([N+](=O)[O-])cc1NC(=O)c1cc(C(C)(C)C)ccc1O` [compound 12], the algicidal activity score in data set [2] (1 ppm) was 10; in data set [2] (5 ppm) it was 0. The “number of dead barnacles” value in data set [1] (1 ppm) and in data set [1] (5 ppm) was 30 throughout. Moreover, the MIC in data set [3] and in data set [4] was 2 µg/mL (≈ 6.09 µM) each time.

As to `Cc1ccc(O)c(C(=O)Nc2ccc([N+](=O)[O-])cc2)c1` [compound 4], the algicidal activity score is 10 in data set [2] (1 ppm) and 0 in data set [2] (5 ppm).
